For 30 compounds, IC50 and inhibition results are on record in patent US9434711B2 (Janssen Pharmaceutica, NV, priority 2007, dated 2016).

pIC50: −log10 of the molar value. Like-named read-outs stand apart in the source and are kept apart here.

The assay addresses canine TRPM8 (Canis lupus familiaris, UniProt Q1A7N1). Nature of the assay: In Vitro Canine TRPM8 Functional Assay (Ca2+ fluorescence, icilin activation). It counts as cell-based. To be noted: for pIC50: HEK293 cells stably expressing canine TRPM8, icilin activation, eight-point dose-response, read-out: IC50; for inhibition at 0.2 µM: compound at 0.2 μM, read-out: % Inh @ 0.2. The essentials:
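Eight-point dose-response curves, each point averaging quadruplicate wells, gave EC50 or IC50. Canine TRPM8-expressing HEK293 cells, dye-loaded (Calcium 3), were pre-exposed 5 min to compound, then challenged with icilin at roughly EC80; intracellular Ca2+ read by FLIPR or FDSS fluorescence.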

[1] abbreviates: compound at 0.5 μM, canine TRPM8, icilin activation, read-out: % Inh @ 0.5.
[2] abbreviates: canine TRPM8, icilin activation.

Sequence of canine TRPM8 (Q1A7N1 1-1104): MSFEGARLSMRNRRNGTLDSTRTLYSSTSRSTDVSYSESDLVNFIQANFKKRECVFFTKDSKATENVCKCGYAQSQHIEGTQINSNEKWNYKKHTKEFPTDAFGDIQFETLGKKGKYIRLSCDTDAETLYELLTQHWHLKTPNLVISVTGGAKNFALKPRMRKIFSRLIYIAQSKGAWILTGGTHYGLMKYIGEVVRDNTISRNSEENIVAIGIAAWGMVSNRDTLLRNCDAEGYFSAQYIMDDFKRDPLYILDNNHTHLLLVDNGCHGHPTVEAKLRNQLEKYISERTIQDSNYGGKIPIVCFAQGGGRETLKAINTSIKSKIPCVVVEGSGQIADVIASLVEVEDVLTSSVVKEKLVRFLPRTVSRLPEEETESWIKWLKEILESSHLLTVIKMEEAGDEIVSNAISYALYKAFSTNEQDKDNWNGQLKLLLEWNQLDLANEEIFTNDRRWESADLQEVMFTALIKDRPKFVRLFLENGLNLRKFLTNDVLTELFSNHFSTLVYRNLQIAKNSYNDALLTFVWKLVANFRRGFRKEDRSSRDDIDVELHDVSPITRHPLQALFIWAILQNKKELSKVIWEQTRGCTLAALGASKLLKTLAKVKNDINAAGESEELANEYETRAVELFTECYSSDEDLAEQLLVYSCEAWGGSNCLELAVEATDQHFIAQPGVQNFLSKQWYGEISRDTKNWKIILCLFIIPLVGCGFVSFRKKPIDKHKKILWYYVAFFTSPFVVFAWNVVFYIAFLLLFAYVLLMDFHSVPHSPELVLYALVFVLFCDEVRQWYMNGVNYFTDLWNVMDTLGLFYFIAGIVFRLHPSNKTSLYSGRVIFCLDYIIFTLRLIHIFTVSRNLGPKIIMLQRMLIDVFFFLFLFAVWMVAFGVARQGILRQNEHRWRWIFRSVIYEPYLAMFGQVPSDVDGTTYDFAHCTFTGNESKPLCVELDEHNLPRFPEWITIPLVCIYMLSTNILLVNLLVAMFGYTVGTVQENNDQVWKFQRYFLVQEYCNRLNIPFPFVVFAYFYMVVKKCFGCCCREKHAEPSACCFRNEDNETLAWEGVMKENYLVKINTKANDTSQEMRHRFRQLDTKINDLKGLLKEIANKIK

Take `O=[N+]([O-])c1ccccc1CN(c1sc2ccccc2c1Br)S(=O)(=O)c1ccccc1` [Compound 171, N-(3-Bromo-benzo[b]thiophen-2-yl)-N-(2-nitro-benzyl)-benzenesulfonamide]: the pIC50 is 7.71. The inhibition at 0.5 µM under setting [1] is 100%.
For the compound `O=S(=O)(c1ccccc1)N(Cc1ccccc1OC(F)(F)F)c1sc2ccccc2c1Br` [Compound 172, N-(3-Bromo-benzo[b]thiophen-2-yl)-N-(2-trifluoromethoxy-benzyl)-benzenesulfonamide], the pIC50 was 7.95. The inhibition at 0.5 µM under setting [1] amounted to 98%.
As to `O=S(=O)(c1ccccc1)N(Cc1cccc(OC(F)(F)F)c1)c1sc2ccccc2c1Br` [Compound 173, N-(3-Bromo-benzo[b]thiophen-2-yl)-N-(3-trifluoromethoxy-benzyl)-benzenesulfonamide], the pIC50 was 8.08. Also, under setting [1], the inhibition at 0.5 µM was 99%.
Consider `O=S(=O)(c1ccccc1)N(Cc1ccccc1)c1sc2ccccc2c1Br` [Compound 175, N-(Benzyl)-N-(3-bromo-benzo[b]thiophen-2-yl)-benzenesulfonamide], for which the pIC50 was 8.34. In addition, the inhibition at 0.5 µM under setting [1] is 97%.
For `COc1cc(CN(c2sc3ccccc3c2Br)S(=O)(=O)c2ccccc2)ccc1F` [Compound 176, N-(3-Bromo-benzo[b]thiophen-2-yl)-N-(4-fluoro-3-methoxy-benzyl)-benzenesulfonamide], in that order: 8.55 and 97%.
For the compound `Cc1ccccc1CN(c1sc2ccccc2c1Br)S(=O)(=O)c1ccccc1` [Compound 178, N-(3-Bromo-benzo[b]thiophen-2-yl)-N-(2-methyl-benzyl)-benzenesulfonamide], the negative logarithm of the IC50 (pIC50) was 7.45. The inhibition at 0.5 µM under setting [1] was 96%.
As for `Cc1cccc(CN(c2sc3ccccc3c2Br)S(=O)(=O)c2ccccc2)c1` [Compound 179, N-(3-Bromo-benzo[b]thiophen-2-yl)-N-(3-methyl-benzyl)-benzenesulfonamide], the pIC50 was 8.44. For the same compound, the inhibition at 0.5 µM under setting [1] was determined as 98%.
Regarding `COc1cccc(S(=O)(=O)N(Cc2ccc(F)c(C(F)(F)F)c2)c2sc3ccccc3c2Cl)c1` [Compound 180, N-(3-Chloro-benzo[b]thiophen-2-yl)-N-(4-fluoro-3-trifluoromethyl-benzyl)-3-methoxy-benzenesulfonamide], the pIC50 was 7.37. The inhibition at 0.2 µM under setting [2] is 96%.
Take `COc1ccc(S(=O)(=O)N(Cc2ccc(F)c(C(F)(F)F)c2)c2sc3ccccc3c2Cl)cc1` [Compound 181, N-(3-Chloro-benzo[b]thiophen-2-yl)-N-(4-fluoro-3-trifluoromethyl-benzyl)-4-methoxy-benzenesulfonamide]: the pIC50 is 7.08. In addition, the inhibition at 0.2 µM under setting [2] came out at 95%.
Regarding `COc1ccc(S(=O)(=O)N(Cc2ccc(F)c(C(F)(F)F)c2)c2sc3ccccc3c2Br)cc1` [Compound 182, N-(3-Bromo-benzo[b]thiophen-2-yl)-N-(4-fluoro-3-trifluoromethyl-benzyl)-4-methoxy-benzenesulfonamide], the pIC50 is 8.00. Moreover, the inhibition at 0.5 µM under setting [1] amounted to 99%.
Take `CCS(=O)(=O)N(Cc1ccc(F)c(C(F)(F)F)c1)c1sc2ccccc2c1Br` [Compound 183, N-(3-Bromo-benzo[b]thiophen-2-yl)-N-(4-fluoro-3-trifluoromethyl-benzyl)-ethanesulfonamide]: the negative-log IC50 (pIC50) is 7.85. Further, the inhibition at 0.5 µM under setting [1] was found to be 99%.
For `O=S(=O)(c1cccs1)N(Cc1ccc(F)c(C(F)(F)F)c1)c1sc2ccccc2c1Br` [Compound 184, N-(3-Bromo-benzo[b]thiophen-2-yl)-N-(4-fluoro-3-trifluoromethyl-benzyl)-thiophene-2-sulfonamide], in that order: 8.41 and 97%.
Regarding `COc1cccc(S(=O)(=O)N(Cc2ccc(F)c(C(F)(F)F)c2)c2sc3ccccc3c2Br)c1` [Compound 185, N-(3-Bromo-benzo[b]thiophen-2-yl)-N-(4-fluoro-3-trifluoromethyl-benzyl)-3-methoxy-benzenesulfonamide], the negative-log IC50 (pIC50) is 8.19. Further, the inhibition at 0.2 µM under setting [2] came out at 102%.
As for `O=S(=O)(c1ccsc1)N(Cc1ccc(F)c(C(F)(F)F)c1)c1sc2ccccc2c1Br` [Compound 186, N-(3-Bromo-benzo[b]thiophen-2-yl)-N-(4-fluoro-3-trifluoromethyl-benzyl)-thien-3-yl-sulfonamide], the negative logarithm of the IC50 (pIC50) is 8.43. For the same compound, under setting [2], the inhibition at 0.2 µM was 103%.
For `O=S(=O)(c1ccsc1)N(Cc1ccc(F)c(C(F)(F)F)c1)c1sc2ccccc2c1Cl` [Compound 187, N-(3-Chloro-benzo[b]thiophen-2-yl)-N-(4-fluoro-3-trifluoromethyl-benzyl)-thien-3-yl-sulfonamide], in that order: 8.22 and 100%.
For `O=S(=O)(c1cccnc1)N(Cc1ccc(F)c(C(F)(F)F)c1)c1sc2ccccc2c1Cl` [Compound 189, N-(3-Chloro-benzo[b]thiophen-2-yl)-N-(4-fluoro-3-trifluoromethyl-benzyl)-pyridin-3-yl-sulfonamide], in that order: 7.94 and 100%.
Turning to `CCS(=O)(=O)N(Cc1ccc(F)c(C(F)(F)F)c1)c1sc2ccccc2c1Cl` [Compound 190, N-(3-Chloro-benzo[b]thiophen-2-yl)-N-(4-fluoro-3-trifluoromethyl-benzyl)-ethanesulfonamide], the negative-log IC50 (pIC50) was 7.82. Further, under setting [2], the inhibition at 0.2 µM is 101%.
In the case of `O=S(=O)(c1cccs1)N(Cc1ccc(F)c(C(F)(F)F)c1)c1sc2ccccc2c1Cl` [Compound 191, N-(3-Chloro-benzo[b]thiophen-2-yl)-N-(4-fluoro-3-trifluoromethyl-benzyl)-thiophene-2-sulfonamide], the inhibition at 0.2 µM under setting [2] is 105%.
Regarding `COC(=O)c1ccc(S(=O)(=O)N(Cc2ccc(F)c(C(F)(F)F)c2)c2sc3ccccc3c2Br)cc1` [Compound 192, N-(3-Bromo-benzo[b]thiophen-2-yl)-N-(4-fluoro-3-trifluoromethyl-benzyl)-4-carbomethoxy-benzenesulfonamide], the negative logarithm of the IC50 (pIC50) was 7.22. Further, under setting [2], the inhibition at 0.2 µM came out at 82%.
For `COC(=O)c1cccc(S(=O)(=O)N(Cc2ccc(F)c(C(F)(F)F)c2)c2sc3ccccc3c2Br)c1` [Compound 193, N-(3-Bromo-benzo[b]thiophen-2-yl)-N-(4-fluoro-3-trifluoromethyl-benzyl)-3-carbomethoxy-benzenesulfonamide], in that order: 7.84 and 101%.
`COC(=O)c1ccc(S(=O)(=O)N(Cc2ccc(F)c(C(F)(F)F)c2)c2sc3ccccc3c2Cl)cc1` [Compound 194, N-(3-Chloro-benzo[b]thiophen-2-yl)-N-(4-fluoro-3-trifluoromethyl-benzyl)-4-carbomethoxy-benzenesulfonamide]: under setting [2], the inhibition at 0.2 µM came out at 45%.
With `COC(=O)c1cccc(S(=O)(=O)N(Cc2ccc(F)c(C(F)(F)F)c2)c2sc3ccccc3c2Cl)c1` [Compound 195, N-(3-Chloro-benzo[b]thiophen-2-yl)-N-(4-fluoro-3-trifluoromethyl-benzyl)-3-carbomethoxy-benzenesulfonamide], the negative logarithm of the IC50 (pIC50) is 7.33. Under setting [2], the inhibition at 0.2 µM was determined as 88%.
On the same counts, the results for `COC(=O)c1ccccc1S(=O)(=O)N(Cc1ccc(F)c(C(F)(F)F)c1)c1sc2ccccc2c1Cl` [Compound 196, N-(3-Chloro-benzo[b]thiophen-2-yl)-N-(4-fluoro-3-trifluoromethyl-benzyl)-2-carbomethoxy-benzenesulfonamide] are 8.10 and 99%.
With `COC(=O)c1ccccc1S(=O)(=O)N(Cc1ccc(F)c(C(F)(F)F)c1)c1sc2ccccc2c1Br` [Compound 197, N-(3-Bromo-benzo[b]thiophen-2-yl)-N-(4-fluoro-3-trifluoromethyl-benzyl)-2-carbomethoxy-benzenesulfonamide], the pIC50 was 8.15. Moreover, the inhibition at 0.2 µM under setting [2] stood at 99%.
On to `CCS(=O)(=O)N(Cc1ccc(F)c(C(F)(F)F)c1)c1sc2ccccc2c1C#N` [Compound 198, N-(3-Cyano-benzo[b]thiophen-2-yl)-N-(4-fluoro-3-trifluoromethyl-benzyl)-ethanesulfonamide], for which the negative-log IC50 (pIC50) was 8.00. The inhibition at 0.2 µM under setting [2] was 95%.
For `CCS(=O)(=O)N(Cc1ccc(F)c(C(F)(F)F)c1)c1sc2ccccc2c1-c1cncnc1` [Compound 199, N-(4-Fluoro-3-trifluoromethyl-benzyl)-N-(3-pyrimidin-5-yl-benzo[b]thiophen-2-yl)-ethanesulfonamide], in that order: 7.89 and 91%.
For the compound `CCS(=O)(=O)N(Cc1ccc(F)c(C(F)(F)F)c1)c1sc2ccccc2c1-c1ccccc1F` [Compound 200, N-[3-(2-Fluoro-phenyl)-benzo[b]thiophen-2-yl]-N-(4-fluoro-3-trifluoromethyl-benzyl)-ethanesulfonamide], the inhibition at 0.2 µM under setting [2] was 29%.
Still for that read-out and setting: to `CCS(=O)(=O)N(Cc1ccc(F)c(C(F)(F)F)c1)c1sc2ccccc2c1-c1ccc(F)cc1` [Compound 201, N-[3-(4-Fluoro-phenyl)-benzo[b]thiophen-2-yl]-N-(4-fluoro-3-trifluoromethyl-benzyl)-ethanesulfonamide] belongs 14%; to `CCS(=O)(=O)N(Cc1ccc(F)c(C(F)(F)F)c1)c1sc2ccccc2c1-c1ccsc1` [Compound 202, N-(4-Fluoro-3-trifluoromethyl-benzyl)-N-(3-thiophen-3-yl-benzo[b]thiophen-2-yl)-ethanesulfonamide], 32%.
As for `CCS(=O)(=O)N(Cc1ccc(F)c(F)c1)c1sc2ccccc2c1C(C)=O` [Compound 203], for the setting “read-out: % Inh @ 0.5 (μM)”, the inhibition at 0.5 µM is 93%.

As usually defined, the pIC50 is the negative decadic logarithm of the IC50, by convention in mol/L.
